# Patent US7166738B2, “Non-nucleoside reverse transcriptase inhibitors” (Roche Palo Alto LLC, priority 2004, dated 2007)
row,melting point [°C],Structure (SMILES)
1,213.2 to 219.6,"CCc1ccc(CC(=O)Nc2ccc(S(N)(=O)=O)cc2C)cc1Oc1cc(Cl)cc(Br)c1Cl [Compound I-36, 2-[3-(3-Bromo-2,5-dichloro-phenoxy)-4-ethyl-phenyl]-N-(2-methyl-4-sulfamoyl-phenyl)-acetamide]"
2,146.5 to 147.6,"CCc1ccc(CC(=O)Nc2ccccc2Cl)cc1Oc1cc(Cl)cc(Br)c1Cl [Compound I-37, 2-[3-(3-Bromo-2,5-dichloro-phenoxy)-4-ethyl-phenyl]-N-(2-chloro-phenyl)-acetamide]"
3,155.5 to 155.8,"CCc1ccc(CC(=O)Nc2ccccc2Cl)cc1Oc1cc(Br)cc(Br)c1Cl [Compound I-38, N-(2-Chloro-phenyl)-2-[3-(3,5-dibromo-2-chloro-phenoxy)-4-ethyl-phenyl]-acetamide]"
4,209.9 to 211.1,"CCc1ccc(CC(=O)Nc2ccc(S(N)(=O)=O)cc2)cc1Oc1cc(Br)cc(F)c1Cl [Compound I-39, 2-[3-(5-Bromo-2-chloro-3-fluoro-phenoxy)-4-ethyl-phenyl]-N-(4-sulfamoyl-phenyl)-acetamide]"
5,207 to 209.9,"CCc1ccc(CC(=O)Nc2ccc(S(N)(=O)=O)cc2C)cc1Oc1cc(Br)cc(F)c1Cl [Compound I-40, 2-[3-(5-Bromo-2-chloro-3-fluoro-phenoxy)-4-ethyl-phenyl]-N-(2-methyl-4-sulfamoyl-phenyl)-acetamide]"
6,146.6 to 147.2,"CCc1ccc(CC(=O)Nc2ccccc2Cl)cc1Oc1cc(Br)cc(F)c1Cl [Compound I-41, 2-[3-(5-Bromo-2-chloro-3-fluoro-phenoxy)-4-ethyl-phenyl]-N-(2-chloro-phenyl)-acetamide]"
7,228.6 to 230.9,"Cc1cc(S(N)(=O)=O)ccc1NC(=O)Cc1ccc(C)c(Oc2cc(C#N)cc(C#N)c2)c1 [Compound I-43, 2-[3-(3,5-Dicyano-phenoxy)-4-methyl-phenyl]-N-(2-methyl-4-sulfamoyl-phenyl)-acetamide]"
8,209.9 to 211.5,"Cc1ccc(CC(=O)Nc2ccc(S(N)(=O)=O)cc2Cl)cc1Oc1cc(C#N)cc(C#N)c1 [Compound I-44, N-(2-Chloro-4-sulfamoyl-phenyl)-2-[3-(3,5-dicyano-phenoxy)-4-methyl-phenyl]-acetamide]"
9,170.7 to 172.4,"CCc1ccc(CC(=O)Nc2ccc(S(N)(=O)=O)cc2)cc1Oc1cc(Cl)cc(C#N)c1 [Compound I-45, 2-[3-(3-Chloro-5-cyano-phenoxy)-4-ethyl-phenyl]-N-(4-sulfamoyl-phenyl)-acetamide]"
10,189.1 to 189.4,"CCc1ccc(CC(=O)Nc2ccc(S(N)(=O)=O)cc2C)cc1Oc1cc(Cl)cc(C#N)c1 [Compound I-46, 2-[3-(3-Chloro-5-cyano-phenoxy)-4-ethyl-phenyl]-N-(2-methyl-4-sulfamoyl-phenyl)-acetamide]"
11,181.1 to 183.9,"CCc1ccc(CC(=O)Nc2ccc(S(N)(=O)=O)cc2Cl)cc1Oc1cc(Cl)cc(C#N)c1 [Compound I-47, 2-[3-(3-Chloro-5-cyano-phenoxy)-4-ethyl-phenyl]-N-(2-chloro-4-sulfamoyl-phenyl)-acetamide]"
12,149.1 to 151.3,"CCc1ccc(CC(=O)Nc2ccc(S(=O)(=O)NC)cc2)cc1Oc1cc(Cl)cc(C#N)c1 [Compound I-48, 2-[3-(3-Chloro-5-cyano-phenoxy)-4-ethyl-phenyl]-N-(4-methylsulfamoyl-phenyl)-acetamide]"
13,167.9 to 170.5,"CCc1ccc(CC(=O)Nc2ccc(S(N)(=O)=O)cc2)cc1Oc1cc(C#N)cc(F)c1Cl [Compound I-49, 2-[3-(2-Chloro-5-cyano-3-fluoro-phenoxy)-4-ethyl-phenyl]-N-(4-sulfamoyl-phenyl)-acetamide]"
14,217.6 to 220.4,"CCc1ccc(CC(=O)Nc2ccc(S(N)(=O)=O)cc2C)cc1Oc1cc(C#N)cc(F)c1Cl [Compound I-50, 2-[3-(2-Chloro-5-cyano-3-fluoro-phenoxy)-4-ethyl-phenyl]-N-(2-methyl-4-sulfamoyl-phenyl)-acetamide]"
